Laboratory results reported in patent US20150065347A1, “CO-CRYSTALS OF DICAMBA AND A CO-CRYSTAL FORMER B” (priority 2012, published 2015).
Values after ≈ are worked out from the molar mass of the structure shown.

Tests used:
[1] = Isothermal TGA volatility study; format: physicochemical; details: isothermal TGA at 100° C., weight loss monitored for 12 hours, nitrogen flow
Method: TG/DTA measurement was carried out on a Seiko TG/DTA 7200 instrument. An open aluminium pan was used and the measurement was carried out under nitrogen flow with a sample weight of 5 to 10 mg. The isothermal TGA for volatility studies were performed at 100° C. and the weight loss was monitored for 12 hours.

[2] = Water solubility of the co-crystals (slurry equilibration, HPLC); format: physicochemical; details: water suspension (slurry), thermodynamic from solid; water suspensions slurried for 24 hours, filtered, liquid phase by HPLC, room temperature
Method: The determination of the amount of the actives in solution was performed on HPLC ACQUITY (Water) system, equipped with PDA—230 nm UV detector and Sample Manager auto-injector. Waters' Enpower software was used to record the chromatograms and to calculate the chromatographic parameters. […] Injection volume was set 1 μL by auto injector. The analysis were performed with rate flux of 0.4 ml/min. UV detection was performed at 245 nm. Peak identities were confirmed by spectrum and retention time comparison. All the analyses were performed at room temperature. All the analyzed solutions were prepared by slurry equilibration experiments. […] The suspensions were filtered and both solid phase and liquid phase were analyzed by XRPD and HPLC, respectively.

TGA Volatility (% weight loss per minute) [1]: 1.20 × 10^−2 % weight loss per minute | solubility at 24 h [2]: 6550 µg/mL (≈ 29.6 mM)
SMILES: COc1c(Cl)ccc(Cl)c1C(=O)O [Dicamba, 3,6-dichloro-2-methoxybenzoic acid]
